Test results from ChEMBL document CHEMBL1201862, “PubChem BioAssay data set” (2004).
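Protocol summary: plate cells (96-well), add compound at 5 concentrations, incubate 48 h, interpolate endpoints linearly. GI50 marks 50% less growth.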 Active and inactive are the calls of the source. No stated cut-off is given here; in the data, active = GI50 up to about 1.1 µM and inactive = higher.

Legend:
Assay in all cases: growth of human tumour cells (NCI), 48 h
SR = test system: SR
MDA-MB-231 = test system: MDA-MB-231
HOP-62 = test system: HOP-62
NCI-H522 = test system: NCI-H522
RXF 393 = test system: RXF 393
SF-539 = test system: SF-539
U-251 = test system: U-251
SNB-75 = test system: SNB-75
NCI-H23 = test system: NCI-H23
PC-3 = test system: PC-3
HL-60 = test system: HL-60
CCRF-CEM = test system: CCRF-CEM
A498 = test system: A498
COLO 205 = test system: COLO 205
LOX IMVI = test system: LOX IMVI
MDA-MB-435 = test system: MDA-MB-435
DU-145 = test system: DU-145
ACHN = test system: ACHN
SF-268 = test system: SF-268
NCI/ADR-RES = test system: NCI/ADR-RES

Cc1nc(C)c(N2CCN(S(=O)(=O)N(Cc3ccccc3)Cc3ccccc3)CC2)c(O)n1
GI50 (SR): > 100 µM (inactive) | GI50 (MDA-MB-231): > 35.7 µM (inactive) | GI50 (HOP-62): 9.31 µM (inactive) | GI50 (NCI-H522): 4.85 µM (inactive) | GI50 (RXF 393): 11.2 µM (inactive) | GI50 (SF-539): 12.5 µM (inactive) | GI50 (U-251): 5.21 µM (inactive) | GI50 (SNB-75): 5.31 µM (inactive) | GI50 (NCI-H23): 14.3 µM (inactive) | GI50 (PC-3): 41.8 µM (inactive) | GI50 (HL-60): > 100 µM (inactive) | GI50 (CCRF-CEM): > 100 µM (inactive) | GI50 (A498): > 51.9 µM (inactive) | GI50 (COLO 205): > 100 µM (inactive) | GI50 (LOX IMVI): 43.5 µM (inactive) | GI50 (MDA-MB-435): > 100 µM (inactive) | GI50 (DU-145): > 59.4 µM (inactive) | GI50 (ACHN): 28.6 µM (inactive) | GI50 (SF-268): 6.85 µM (inactive) | GI50 (NCI/ADR-RES): > 61.4 µM (inactive)

Clc1nncc2sc(-c3ccccc3)nc12
GI50 (SR): 9.82 µM (inactive) | GI50 (MDA-MB-231): 18.6 µM (inactive) | GI50 (HOP-62): 17.8 µM (inactive) | GI50 (NCI-H522): 8.73 µM (inactive) | GI50 (RXF 393): 16.6 µM (inactive) | GI50 (SF-539): 27.5 µM (inactive) | GI50 (U-251): 15 µM (inactive) | GI50 (SNB-75): 15.9 µM (inactive) | GI50 (NCI-H23): 17.5 µM (inactive) | GI50 (PC-3): 17.6 µM (inactive) | GI50 (HL-60): 4.14 µM (inactive) | GI50 (CCRF-CEM): 29 µM (inactive) | GI50 (A498): 40.6 µM (inactive) | GI50 (COLO 205): 29.2 µM (inactive) | GI50 (LOX IMVI): 14.7 µM (inactive) | GI50 (MDA-MB-435): 17.4 µM (inactive) | GI50 (DU-145): 6.62 µM (inactive) | GI50 (ACHN): 26.9 µM (inactive) | GI50 (SF-268): 16.3 µM (inactive) | GI50 (NCI/ADR-RES): 23.2 µM (inactive)

CN(C)CCNc1c([N+](=O)[O-])sc2ccc(Cl)cc12
GI50 (SR): > 100 µM (inactive) | GI50 (MDA-MB-231): 17.3 µM (inactive) | GI50 (HOP-62): 12.2 µM (inactive) | GI50 (NCI-H522): 10.8 µM (inactive) | GI50 (RXF 393): 19.1 µM (inactive) | GI50 (SF-539): 14 µM (inactive) | GI50 (U-251): 18.3 µM (inactive) | GI50 (SNB-75): 14.5 µM (inactive) | GI50 (NCI-H23): 23.2 µM (inactive) | GI50 (PC-3): 13.4 µM (inactive) | GI50 (HL-60): > 100 µM (inactive) | GI50 (CCRF-CEM): 4.36 µM (inactive) | GI50 (A498): 23.3 µM (inactive) | GI50 (COLO 205): 8.75 µM (inactive) | GI50 (LOX IMVI): 3.49 µM (inactive) | GI50 (MDA-MB-435): 88.5 µM (inactive) | GI50 (DU-145): 80.4 µM (inactive) | GI50 (ACHN): 6.01 µM (inactive) | GI50 (SF-268): 18.3 µM (inactive) | GI50 (NCI/ADR-RES): 11.1 µM (inactive)

Cc1nc(Cl)c(Cl)c(Cl)n1
GI50 (SR): < 0.01 µM (active) | GI50 (MDA-MB-231): 0.276 µM (active) | GI50 (HOP-62): 0.451 µM (active) | GI50 (NCI-H522): 1.79 µM (inactive) | GI50 (RXF 393): 0.495 µM (active) | GI50 (SF-539): 1.44 µM (inactive) | GI50 (U-251): 2.04 µM (inactive) | GI50 (SNB-75): 1.18 µM (inactive) | GI50 (NCI-H23): 0.526 µM (active) | GI50 (PC-3): 0.348 µM (active) | GI50 (HL-60): 0.0269 µM (active) | GI50 (CCRF-CEM): 0.0109 µM (active) | GI50 (A498): 2.32 µM (inactive) | GI50 (COLO 205): 0.434 µM (active) | GI50 (LOX IMVI): 0.0596 µM (active) | GI50 (MDA-MB-435): 0.531 µM (active) | GI50 (DU-145): 2.81 µM (inactive) | GI50 (ACHN): 0.324 µM (active) | GI50 (SF-268): 1.92 µM (inactive) | GI50 (NCI/ADR-RES): 0.354 µM (active)

COc1cccc(/C=N/n2c(Cc3ccc(Cl)cc3)n[nH]c2=O)c1
GI50 (SR): > 76.9 µM (inactive) | GI50 (MDA-MB-231): 19.7 µM (inactive) | GI50 (HOP-62): 15.4 µM (inactive) | GI50 (NCI-H522): 14.7 µM (inactive) | GI50 (RXF 393): 2 µM (inactive) | GI50 (SF-539): 15.8 µM (inactive) | GI50 (U-251): 22.8 µM (inactive) | GI50 (SNB-75): 11.7 µM (inactive) | GI50 (NCI-H23): 27.9 µM (inactive) | GI50 (PC-3): 56.5 µM (inactive) | GI50 (HL-60): > 100 µM (inactive) | GI50 (CCRF-CEM): > 100 µM (inactive) | GI50 (A498): 59 µM (inactive) | GI50 (COLO 205): > 100 µM (inactive) | GI50 (LOX IMVI): 25.6 µM (inactive) | GI50 (MDA-MB-435): > 100 µM (inactive) | GI50 (DU-145): 25.8 µM (inactive) | GI50 (ACHN): 36.6 µM (inactive) | GI50 (SF-268): 15.9 µM (inactive) | GI50 (NCI/ADR-RES): 30.6 µM (inactive)

COc1ccc(CNC2=Nc3ccncc3S(=O)(=O)N2c2ccccc2)cc1
GI50 (SR): 23.3 µM (inactive) | GI50 (MDA-MB-231): > 100 µM (inactive) | GI50 (HOP-62): > 100 µM (inactive) | GI50 (NCI-H522): 34.1 µM (inactive) | GI50 (RXF 393): 50.7 µM (inactive) | GI50 (SF-539): 4.74 µM (inactive) | GI50 (U-251): 68.1 µM (inactive) | GI50 (SNB-75): 39.1 µM (inactive) | GI50 (NCI-H23): 35.5 µM (inactive) | GI50 (PC-3): 53.6 µM (inactive) | GI50 (HL-60): 12.8 µM (inactive) | GI50 (CCRF-CEM): 19.4 µM (inactive) | GI50 (A498): 35.9 µM (inactive) | GI50 (COLO 205): > 100 µM (inactive) | GI50 (LOX IMVI): 46.9 µM (inactive) | GI50 (MDA-MB-435): 24.9 µM (inactive) | GI50 (DU-145): 45.7 µM (inactive) | GI50 (ACHN): 34 µM (inactive) | GI50 (SF-268): 52.4 µM (inactive) | GI50 (NCI/ADR-RES): 35.9 µM (inactive)

CCOC(=O)C(=CNc1ccc(NC2=NCC(C)S2)cc1)C(=O)OCC (stereo not given)
GI50 (SR): 22.3 µM (inactive) | GI50 (MDA-MB-231): 34.3 µM (inactive) | GI50 (HOP-62): 50 µM (inactive) | GI50 (NCI-H522): 2.66 µM (inactive) | GI50 (RXF 393): 30.5 µM (inactive) | GI50 (SF-539): 47.8 µM (inactive) | GI50 (U-251): 26.2 µM (inactive) | GI50 (SNB-75): 22.1 µM (inactive) | GI50 (NCI-H23): 28.1 µM (inactive) | GI50 (PC-3): 16.1 µM (inactive) | GI50 (HL-60): 2.38 µM (inactive) | GI50 (CCRF-CEM): 0.0908 µM (active) | GI50 (A498): 28.8 µM (inactive) | GI50 (COLO 205): 35.6 µM (inactive) | GI50 (LOX IMVI): 30.1 µM (inactive) | GI50 (MDA-MB-435): 20.2 µM (inactive) | GI50 (DU-145): 46.5 µM (inactive) | GI50 (ACHN): 18.7 µM (inactive) | GI50 (SF-268): 33.1 µM (inactive) | GI50 (NCI/ADR-RES): 23.1 µM (inactive)
